Measurements from publication PMC10672842, “Anti-Trypanosoma cruzi Activity, Mutagenicity, Hepatocytotoxicity and Nitroreductase Enzyme Evaluation of 3-Nitrotriazole, 2-Nitroimidazole and Triazole Derivatives” (Molecules, 2023).
Where two headings read alike, the source gives them in different places.

Tests used:
[1] = In vitro cytotoxicity of L929 cells (AlamarBlue); format: cell-based, mice; conditions: mouse, four days
Procedure: For this bioassay, 4000 mammalian cells in 200 µL of RPMI-1640 medium (pH 7.2–7.4) (Gibco BRL) plus 10% fetal bovine serum and 2 mM glutamine were added to each well of a 96-well microtiter plate, which was incubated for three days at 37 °C. […] After this period, 20 µL of AlamarBlue^TM was added to each well, and the plate was incubated for another 4–6 h. Then, the absorbance was measured at 570 nm. Controls with cells not treated and treated with benznidazole were performed in parallel, and triplicates were performed on the same plate. The results are expressed as the percent difference in the reduction between treated (CT) and untreated cells (UT) using the following equation:(1) 117.216Abs570 TC−80.586(Abs600 TC)/117.216Abs570 UT−80.586(Abs600 UT) × 100

[2] = tested on: T. cruzi (Tulahuen strain); assay: In vitro anti-T. cruzi evaluation in an intracellular model (trypomastigote and amastigote forms, L929 host cells, β-galactosidase readout); format: cell-based, Trypanosoma cruzi; conditions: for IC50: Tulahuen strain, intracellular trypomastigote and amastigote forms in L929 fibroblasts, 96 h, read-out: IC50 T. cruzi; for SI: selectivity index, L929 cells vs T. cruzi
Procedure: Derivatives 5–10 were evaluated in vitro against T. cruzi in an intracellular model on the trypomastigote and amastigote forms of the parasite of the Tulahuen strain [20]. This model is interesting because it mimics the life cycle of the parasite, as both clinically relevant forms are present in the environment. The mammalian host cells used were fibroblasts from L929 mice.
This assay was performed as previously described by Buckner et al. (1996) using T. cruzi (Tulahuen strain), which expresses the β-galactosidase gene of Escherichia coli. Infectious trypomastigote forms were obtained by culturing fibroblast monolayers of L929 mice in RPMI-1640 medium (pH 7.2–7.4) without phenol red (Gibco BRL), containing 10% fetal bovine serum and 2 mM glutamine. For the bioassay, 4000 L929 cells in 80 µL of supplemented medium were added to each well of a 96-well microtiter plate. After overnight incubation, 40,000 trypomastigotes in 20 µL were added to the cells and incubated for 2 h. […] The medium was then replaced with compound solutions at 1.0 µg/mL in fresh medium (200 µL), and the plate was incubated for 96 h at 37 °C. After this period, 50 µL of chlorophenol D-galactopyranoside red (500 µM) in 0.5% Nonidet P40 was added to each well, and the plate was incubated for 18 h at 37 °C. After this, the absorbance was measured at 570 nm. Controls with uninfected cells and infected cells treated with benznidazole were performed in parallel. The results are expressed as the percentage of T. cruzi growth inhibition in cells tested with compost compared to infected and untreated cells. The tests were performed in triplicate.

[3] = tested on: T. cruzi nitroreductase enzyme (TcNTR); assay: Kinetic assay with Trypanosoma cruzi nitroreductase enzyme (NADH oxidation); format: biochemical; conditions: for Kobs Deriv./Kobs BZN 50 µM: 50 µM derivative
Procedure: To determine a potential mechanism of action, nitroazole derivatives 5, 6, 8 and 9 were evaluated as substrates of the T. cruzi nitroreductase enzyme (TcNTR) and compared to BZN, the reference prodrug (Table 2). The enzymatic activity was measured by monitoring the oxidation of NADH, the first substrate of the enzyme, via spectrophotometric assays. […] At a concentration of 25 µM, derivatives 5 and 8 were metabolized at rates 2.3 and 2.6 times higher than that of BZN, respectively. At 50 µM, the compounds presented metabolism rates 1.6 and 3.0 times higher than that of BZN, respectively.
The protocols for expressing, purifying and conducting kinetic analysis with the recombinant TcNTR enzyme were adapted from the methods originally developed by Shane Wilkinson, with certain modifications.
For the kinetics assays, it was prepared a 200 μL solution which included 50 mM Tris-Base at pH 7.5, with a constant concentration of both NADH (50 μM) and the substances 5, 6, 8, 9 or BZN. Specifically, two distinct fixed concentrations (25 and 50 μM) of the substances 5, 6, 8, 9 or BZN were tested. These prepared mixtures were then incubated for 5 min at room temperature. Subsequently, the reaction was initiated by adding NTR to achieve a final concentration of 10 μg/mL. The reaction rates were monitored using a Hitachi U-2900 spectrophotometer, measuring the consumption of the primary substrate, NADH (λ = 340 nm; ε = 6.220 M^−1 cm^−1), over a 2-min interval. The resulting data curves were analyzed through linear regression using OriginPro 2016 software. To evaluate the reaction rate (Kobs) obtained from the 25 and 50 μM concentrations of each substrate, comparisons were made with the reference values for BZN. Measurement errors were calculated using the formula: Error = Z × σ/√n, where ‘Z’ denotes the critical value, ‘σ’ represents the standard deviation and ‘n’ is the number of test measurements, which were performed at least in triplicate.

[4] = tested on: T. cruzi; parameters: method as in PMID 10602737; conditions: in vitro; read-out: IC50 against T. cruzi; cited from earlier work
[5] = Trypanosoma cruzi, TULAHUEN, L929, 96 h

SMILES | CC50 at 4 days [1] | IC50 [2, 5] | SI [2] | melting point | IC50 [2] | Kobs Deriv./Kobs BZN 50 µM ([3]; ratio of mean Kobs to BZN) | times more potent against T. cruzi than 6 ([2]; ratio of IC50 T. cruzi to 2-nitroimidazole ketone 6) | Kobs Deriv./Kobs BZN 25 µM ([3]; 25 µM derivative, ratio of mean Kobs to BZN) | consumption rate by TcNTR, times higher than that of 6 ([3]; 50 µM) | IC50 [4]
OC(Cn1cncn1)c1ccc(F)cc1F (centres unmarked) [Compound 10, 1-(2,4-Difluorophenyl)-2-(1H-1,2,4-triazol-1-yl)ethanol] | > 3200 µM | 120 ± 90 µM | >27 | 119 to 121 °C | – | – | – | – | – | –
O=C(Cn1ccnc1[N+](=O)[O-])c1ccc(F)cc1F [Compound 6, 1-(2,4-Difluorophenyl)-2-(2-nitro-1H-imidazol-1-yl)ethanone] | 629 ± 61 µM | 90.9 µM | 7 | 128 to 130 °C | 91 ± 4 µM | 0.3 | – | – | – | –
O=C(Cn1cnc([N+](=O)[O-])n1)c1ccc(F)cc1F [Compound 5, 1-(2,4-Difluorophenyl)-2-(3-nitro-1H-1,2,4-triazol-1-yl)ethanone] | 1200 ± 0.01 µM | 1.8 ± 0.07 µM | 667 | 117 to 119 °C | – | 1.6 | approximately 50 | 2.3 | 6.6 | –
O=C(Cn1cncn1)c1ccc(F)cc1F [Compound 7, 1-(2,4-Difluorophenyl)-2-(1H-1,2,4-triazol-1-yl)ethanone] | – | > 200 µM | – | – | – | – | – | – | – | –
CC[C@@H]([C@H](C)O)n1ncn(-c2ccc(N3CCN(c4ccc(OC[C@@H]5CO[C@@](Cn6cncn6)(c6ccc(F)cc6F)C5)cc4)CC3)cc2)c1=O [posaconazole] | – | – | – | – | – | – | – | – | – | < 0.001 µM
